Assay results published in ChEMBL document CHEMBL1130947, “Tight-binding streptavidin ligands from a cyclic peptide library” (Bioorg Med Chem Lett, 1998).
Positions of bridges follow the written chain, without caps; N, C: chain ends. Residues, ends and D or L forms follow the SMILES beside them.

Assay: The compound was tested for inhibition of streptavidin binding to the TentaGel-bound Ac-HPQFG peptide
In the case of CC[C@H](C)[C@H](NC(=O)[C@H]1CSSC[C@H](NC(=O)[C@H](CCC(=O)O)NC(=O)[C@H](C)N)C(=O)N[C@@H](Cc2c[nH]cn2)C(=O)N2CCC[C@H]2C(=O)N[C@@H](CCC(N)=O)C(=O)NCC(=O)N2CCC[C@H]2C(=O)N2CCC[C@H]2C(=O)N1)C(=O)N[C@@H](CCC(=O)O)C(=O)NCC(=O)N[C@@H](CCCN=C(N)N)C(=O)N[C@@H](CCCCN)C(N)=O, the IC50 is reported as 0.73 µM.
In the case of C[C@@H]1NC(=O)CNC(=O)[C@H](Cc2ccccc2)NC(=O)[C@H](CCC(N)=O)NC(=O)[C@@H]2CCCN2C(=O)[C@H](Cc2c[nH]cn2)NC(=O)[C@H](C)NC(=O)CC[C@@H](C(=O)N[C@@H](CCCCN)C(N)=O)NC1=O (AHPQFGAEK-NH2; lactam N-8), the IC50 is reported as 19 µM.
C[C@@H]1NC(=O)CC[C@@H](C(=O)N[C@@H](CCCCN)C(N)=O)NC(=O)[C@H](C)NC(=O)[C@@H]2CCCN2C(=O)[C@H](Cc2ccccc2)NC(=O)[C@H](CCC(N)=O)NC(=O)[C@@H]2CCCN2C(=O)[C@H](Cc2c[nH]cn2)NC1=O (AHPQFPAEK-NH2; lactam N-8) gave an IC50 of 0.128 µM.
For C[C@@H]1NC(=O)CC[C@@H](C(=O)N[C@@H](CCCCN)C(N)=O)NC(=O)[C@H](C)NC(=O)[C@H](Cc2ccccc2)NC(=O)[C@H](Cc2c[nH]cn2)NC(=O)CNC(=O)[C@H](Cc2ccc(O)cc2)NC(=O)[C@H](CCC(N)=O)NC1=O (AQYGHFAEK-NH2; lactam N-8), the IC50 was greater than 5000 µM.
Work on Ac-AHPQFGAEK-NH2 yielded an IC50 of 204 µM.
Ac-AHPQFPAEK-NH2 gave an IC50 of 136 µM.
